Assay results as given in ChEMBL document CHEMBL1201862, “PubChem BioAssay data set” (2004).
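Cultured in 96-well plates, cells were exposed to test compound for 48 hours across five concentrations. GI50: concentration for 50% inhibition of growth.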 Active and inactive are the calls of the source. No stated cut-off is given here; in the data, active = GI50 up to about 1.1 µM and inactive = higher.

Assays:
Experiment in all cases: growth of human tumour cells (NCI), 48 h
SK-OV-3 = system: SK-OV-3
RXF 393 = system: RXF 393
SNB-19 = system: SNB-19
SW-620 = system: SW-620
SF-539 = system: SF-539
SR = system: SR
UO-31 = system: UO-31
786-0 = system: 786-0
HCT-15 = system: HCT-15
COLO 205 = system: COLO 205
SF-295 = system: SF-295
Malme-3M = system: Malme-3M
HT-29 = system: HT-29
SK-MEL-2 = system: SK-MEL-2
M19-MEL = system: M19-MEL
NCI-H226 = system: NCI-H226
HL-60 = system: HL-60

| SMILES | GI50 (SK-OV-3) | GI50 (RXF 393) | GI50 (SNB-19) | GI50 (SW-620) | GI50 (SF-539) | GI50 (SR) | GI50 (UO-31) | GI50 (786-0) | GI50 (HCT-15) | GI50 (COLO 205) | GI50 (SF-295) | GI50 (Malme-3M) | GI50 (HT-29) | GI50 (SK-MEL-2) | GI50 (M19-MEL) | GI50 (NCI-H226) | GI50 (HL-60) |
| --- | --- | --- | --- | --- | --- | --- | --- | --- | --- | --- | --- | --- | --- | --- | --- | --- | --- |
| O=C(N/C(=C\c1ccc(Oc2ccc(Cl)c(Cl)c2)cc1)c1nc2ccccc2[nH]1)c1ccccc1 | 26.2 µM (inactive) | 13.9 µM (inactive) | 15.6 µM (inactive) | 16.6 µM (inactive) | 18 µM (inactive) | 25.6 µM (inactive) | 14.1 µM (inactive) | 17.3 µM (inactive) | 23.2 µM | 21.9 µM (inactive) | 15.1 µM (inactive) | 20.9 µM (inactive) | 15.5 µM (inactive) | 19.2 µM (inactive) | 27.6 µM (inactive) | – | – |
| Cc1ccc(/N=N/c2ccc(N(CCC#N)CCC#N)cc2C)c(Br)c1 | 10.3 µM (inactive) | 9.27 µM (inactive) | 32.4 µM (inactive) | 21.9 µM (inactive) | 14.4 µM (inactive) | – | 16.9 µM (inactive) | 17 µM (inactive) | 2.78 µM | 38.1 µM (inactive) | 18.7 µM (inactive) | 44.2 µM (inactive) | 3.53 µM (inactive) | 16.9 µM (inactive) | 25.4 µM (inactive) | 17.2 µM (inactive) | 5.42 µM (inactive) |
| ClC(/N=N/c1ccccc1)=N/Nc1ccccc1 | > 100 µM (inactive) | > 100 µM (inactive) | > 100 µM (inactive) | 31.8 µM (inactive) | > 100 µM (inactive) | > 100 µM (inactive) | – | > 100 µM (inactive) | – | > 100 µM (inactive) | 53.8 µM (inactive) | > 100 µM (inactive) | > 100 µM (inactive) | > 100 µM (inactive) | > 100 µM (inactive) | > 100 µM (inactive) | > 100 µM (inactive) |
| O=C1CCC(=O)c2c1c(O)c1ccncc1c2O | 36.5 µM (inactive) | 21 µM (inactive) | 26 µM (inactive) | 16.4 µM (inactive) | 15.6 µM (inactive) | 13 µM (inactive) | 15.5 µM (inactive) | 15.7 µM (inactive) | 12.9 µM | 7.94 µM (inactive) | 18 µM (inactive) | 16 µM (inactive) | 6.62 µM (inactive) | 13.6 µM (inactive) | 2.92 µM (inactive) | 20.6 µM (inactive) | 7.94 µM (inactive) |
| NC(=O)N/N=C(\CC1OC(=O)c2ccccc21)c1ccco1 (stereo unspecified) | > 100 µM (inactive) | > 100 µM (inactive) | > 100 µM (inactive) | > 100 µM (inactive) | > 100 µM (inactive) | – | > 100 µM (inactive) | 92.9 µM (inactive) | > 100 µM | > 100 µM (inactive) | > 100 µM (inactive) | > 100 µM (inactive) | > 100 µM (inactive) | > 100 µM (inactive) | > 100 µM (inactive) | > 100 µM (inactive) | > 100 µM (inactive) |
| COC(=O)C1=NC(=S)NC(c2ccccc2)C1c1nc2ccccc2o1 (stereo unspecified) | > 50 µM (inactive) | 20.1 µM (inactive) | > 50 µM (inactive) | > 50 µM (inactive) | > 50 µM (inactive) | > 50 µM (inactive) | > 50 µM (inactive) | > 50 µM (inactive) | > 50 µM | > 50 µM (inactive) | > 50 µM (inactive) | > 50 µM (inactive) | > 50 µM (inactive) | > 50 µM (inactive) | > 50 µM (inactive) | > 50 µM (inactive) | > 50 µM (inactive) |
| N/N=C(\Cc1ccccc1)NN=C(N)N | > 100 µM (inactive) | – | – | > 100 µM (inactive) | > 100 µM (inactive) | > 100 µM (inactive) | > 100 µM (inactive) | > 100 µM (inactive) | 74.8 µM | > 100 µM (inactive) | > 100 µM (inactive) | > 100 µM (inactive) | > 100 µM (inactive) | > 100 µM (inactive) | > 100 µM (inactive) | > 100 µM (inactive) | > 100 µM (inactive) |
| CN(C(=O)C12C3C4C1C1C2C3C41C(N)=O)C(C)(C)C (stereo unspecified) | > 100 µM (inactive) | – | > 100 µM (inactive) | > 100 µM (inactive) | > 100 µM (inactive) | > 100 µM (inactive) | > 100 µM (inactive) | > 100 µM (inactive) | – | > 100 µM (inactive) | > 100 µM (inactive) | > 100 µM (inactive) | > 100 µM (inactive) | – | > 100 µM (inactive) | > 100 µM (inactive) | > 100 µM (inactive) |
| O=C1OC(=O)c2c1c(-c1ccccc1)cn2-c1ccc(Cl)cc1 | > 100 µM (inactive) | – | > 100 µM (inactive) | > 100 µM (inactive) | > 100 µM (inactive) | > 100 µM (inactive) | > 100 µM (inactive) | > 100 µM (inactive) | 45.3 µM | 10.6 µM (inactive) | > 100 µM (inactive) | > 100 µM (inactive) | > 100 µM (inactive) | > 100 µM (inactive) | 21.1 µM (inactive) | > 100 µM (inactive) | 1.15 µM (inactive) |
